The NIST ThermoML archive (doi:10.1021/je0500025)
Where a name gives a salt, the structure may show the parent alone. Numbers after ± are expanded uncertainties.

Experiments:
[1] = 101 kPa, Liquid
[2] = xn = mol fraction of the nth substance listed; details: 101 kPa, Liquid

## CC/C=C\CCOC(C)=O [(Z)-3-hexenyl acetate]
[1]; 293.15 K
  mass density: 900.82 ± 2.9 kg/m3
  viscosity: 0.893 ± 0.028 mPa·s
[1]; 303.15 K
  mass density: 893.14 ± 3 kg/m3
  viscosity: 0.763 ± 0.024 mPa·s
[1]; 313.15 K
  mass density: 886.19 ± 3.2 kg/m3
  viscosity: 0.66 ± 0.021 mPa·s

## CCCCOC(C)=O [butyl ethanoate]
[1]; 293.15 K
  mass density: 881.04 ± 3.2 kg/m3
  viscosity: 0.732 ± 0.023 mPa·s
[1]; 303.15 K
  mass density: 871.3 ± 3.4 kg/m3
  viscosity: 0.628 ± 0.02 mPa·s
[1]; 313.15 K
  mass density: 861.84 ± 3.5 kg/m3
  viscosity: 0.546 ± 0.018 mPa·s

## CCO [ethanol] + CCCCOC(C)=O
[2]; 293.15 K, x2 = 0
  mass density: 788.24 ± 4.7 kg/m3
  viscosity: 1.16 ± 0.037 mPa·s
[2]; 303.15 K, x2 = 0
  mass density: 780.73 ± 4.8 kg/m3
  viscosity: 0.968 ± 0.031 mPa·s
[2]; 313.15 K, x2 = 0
  mass density: 771.98 ± 5 kg/m3
  viscosity: 0.81 ± 0.026 mPa·s

## CCC/C=C/COC(C)=O [(E)-2-hexenyl acetate]
[1]; 293.15 K
  mass density: 897.84 ± 3 kg/m3
  viscosity: 0.901 ± 0.029 mPa·s
[1]; 303.15 K
  mass density: 891.78 ± 3.1 kg/m3
  viscosity: 0.77 ± 0.025 mPa·s
[1]; 313.15 K
  mass density: 884.35 ± 3.2 kg/m3
  viscosity: 0.666 ± 0.021 mPa·s

## CC/C=C\CCOC(C)=O [(Z)-3-hexenyl acetate] + CCO
[2]; 293.15 K, x1 = 1
  mass density: 900.82 ± 2.9 kg/m3
  viscosity: 0.893 ± 0.028 mPa·s
[2]; 303.15 K, x1 = 1
  mass density: 893.14 ± 3 kg/m3
  viscosity: 0.763 ± 0.024 mPa·s
[2]; 313.15 K, x1 = 1
  mass density: 886.19 ± 3.2 kg/m3
  viscosity: 0.66 ± 0.021 mPa·s

## CCO [ethanol] + CC/C=C\CCOC(C)=O
[2]; 293.15 K, x2 = 0
  mass density: 788.24 ± 4.7 kg/m3
  viscosity: 1.16 ± 0.037 mPa·s
[2]; 303.15 K, x2 = 0
  mass density: 780.73 ± 4.8 kg/m3
  viscosity: 0.968 ± 0.031 mPa·s
[2]; 313.15 K, x2 = 0
  mass density: 771.98 ± 5 kg/m3
  viscosity: 0.81 ± 0.026 mPa·s

## CCCCOC(C)=O [butyl ethanoate] + CCO
[2]; 293.15 K, x1 = 1
  mass density: 881.04 ± 3.2 kg/m3
  viscosity: 0.732 ± 0.023 mPa·s
[2]; 303.15 K, x1 = 1
  mass density: 871.3 ± 3.4 kg/m3
  viscosity: 0.628 ± 0.02 mPa·s
[2]; 313.15 K, x1 = 1
  mass density: 861.84 ± 3.5 kg/m3
  viscosity: 0.546 ± 0.018 mPa·s

## CCO [ethanol] + CC/C=C\CCOC=O
[2]; 293.15 K, x2 = 0
  mass density: 788.24 ± 4.7 kg/m3
  viscosity: 1.16 ± 0.037 mPa·s
[2]; 303.15 K, x2 = 0
  mass density: 780.73 ± 4.8 kg/m3
  viscosity: 0.968 ± 0.031 mPa·s
[2]; 313.15 K, x2 = 0
  mass density: 771.98 ± 5 kg/m3
  viscosity: 0.81 ± 0.026 mPa·s

## CCO [ethanol] + CCC/C=C/COC(C)=O
[2]; 293.15 K, x2 = 0
  mass density: 788.24 ± 4.7 kg/m3
  viscosity: 1.16 ± 0.037 mPa·s
[2]; 303.15 K, x2 = 0
  mass density: 780.73 ± 4.8 kg/m3
  viscosity: 0.968 ± 0.031 mPa·s
[2]; 313.15 K, x2 = 0
  mass density: 771.98 ± 5 kg/m3
  viscosity: 0.81 ± 0.026 mPa·s

## CC/C=C\CCOC=O [(Z)-3-hexenyl formate] + CCO
[2]; 293.15 K, x1 = 1
  mass density: 909.15 ± 3 kg/m3
  viscosity: 0.599 ± 0.021 mPa·s
[2]; 303.15 K, x1 = 1
  mass density: 906.6 ± 3 kg/m3
  viscosity: 0.527 ± 0.019 mPa·s
[2]; 313.15 K, x1 = 1
  mass density: 903.17 ± 3.1 kg/m3
  viscosity: 0.469 ± 0.017 mPa·s

## CCO [ethanol]
[1]; 293.15 K
  mass density: 788.24 ± 4.7 kg/m3
  viscosity: 1.16 ± 0.037 mPa·s
[1]; 303.15 K
  mass density: 780.73 ± 4.8 kg/m3
  viscosity: 0.968 ± 0.031 mPa·s
[1]; 313.15 K
  mass density: 771.98 ± 5 kg/m3
  viscosity: 0.81 ± 0.026 mPa·s

## CC/C=C\CCOC=O [(Z)-3-hexenyl formate]
[1]; 293.15 K
  mass density: 909.15 ± 3 kg/m3
  viscosity: 0.599 ± 0.021 mPa·s
[1]; 303.15 K
  mass density: 906.6 ± 3 kg/m3
  viscosity: 0.527 ± 0.019 mPa·s
[1]; 313.15 K
  mass density: 903.17 ± 3.1 kg/m3
  viscosity: 0.469 ± 0.017 mPa·s

## CCC/C=C/COC(C)=O [(E)-2-hexenyl acetate] + CCO
[2]; 293.15 K, x1 = 1
  mass density: 897.84 ± 3 kg/m3
  viscosity: 0.901 ± 0.029 mPa·s
[2]; 303.15 K, x1 = 1
  mass density: 891.78 ± 3.1 kg/m3
  viscosity: 0.77 ± 0.025 mPa·s
[2]; 313.15 K, x1 = 1
  mass density: 884.35 ± 3.2 kg/m3
  viscosity: 0.666 ± 0.021 mPa·s
